Test system: panel of experts in the sensory evaluation of foods and beverages
Experiment: Sensory evaluation of sweetness linger and taste characteristics by expert panel
Format: in vivo
Design: key: 0=no sweetness linger; 1=very slight sweetness linger; 2=slight sweetness linger; 3=moderate sweetness linger; 4=moderately high sweetness linger; 5=high sweetness linger

rebaudioside A
sweetness linger (Example Set G: 400 ppm REBA in citric acid/potassium citrate composition equivalent to diet lemon-lime beverage (sugar control 8 g in 100 ml citrate buffer), scale 0-5, sweetness 3-4 min after water rinse): 5 | sweetness linger (Example Set H: REBA (500 ppm; H41 360 ppm) in carbon-treated water, phosphoric acid (75%) to pH 2.4-2.5 (sugar control 10 g in 100 ml), scale 0-5): 5

— patent US9125429B2, “High-potency sweetener composition with fatty acid and compositions sweetened therewith” (THE COCA-COLA COMPANY, priority 2005, dated 2015)
